According to patent publication US9260485B2 (priority 2009, dated 2016):
Read-outs that look alike come from different tables or passages of the source.

How the values were obtained:
Experiment in all cases: In vitro cytotoxicity, SRB method
Format in all cases: cell-based, Human
[1] = test system: SK-MEL-2 skin cancer cell line
Method: (§1) Known cyclic hexadepsipeptides (beauvericin, enniatin H, I, and MK1688) and the compounds of Chemical Formulas 1 and 2 were evaluated for in vitro cytotoxicity against various non-multidrug-resistant human cancer cell lines and multidrug-resistant cancer cell lines using the SRB method.
(§2) Human non-small-cell lung cancer cell line (A549) ovarian cancer cell line (SK-OV-3), skin cancer cell line (SK-MEL-2), and uterine sarcoma cell line MES-SA and its multi-drug resistant subline (MES-SA/DX5) were purchased from the American Type Culture Collection (USA). Colorectal carcinoma cancer cell line (HCT-15) was provided by the National Cancer Institute (NCI). HCT15/CL02 cell lines were established from HCT15 cells by continuous and stepwise exposure of the cells to doxorubicin in the Korea Research Institute of Chemical Technology (Korea).

[2] = test system: HCT15/CL02 cell line (doxorubicin-selected from HCT15); conditions: HCT15/CL02
Method: as §1, §2

[3] = test system: A549 non-small-cell lung cancer cell line
Method: as §1, §2

[4] = test system: SK-OV-3 ovarian cancer cell line
Method: as §1, §2

[5] = test system: MES-SA/DX5 multi-drug resistant subline
Method: as §1, §2

[6] = test system: HCT15 colorectal carcinoma cancer cell line; conditions: HCT15
Method: as §1, §2

[7] = test system: MES-SA uterine sarcoma cell line; conditions: read-out: EC50 (concentration inhibiting cell growth in vitro by 50%)
Method: as §1, §2

[8] = read-out: EC50 (concentration inhibiting cell growth in vitro by 50%), SK-MEL-2
[9] = read-out: EC50 (concentration inhibiting cell growth in vitro by 50%)
[10] = read-out: EC50 (concentration inhibiting cell growth in vitro by 50%), A549
[11] = read-out: EC50 (concentration inhibiting cell growth in vitro by 50%), SK-OV-3
[12] = read-out: EC50 (concentration inhibiting cell growth in vitro by 50%), MES-SA/DX5
[13] = Homo sapiens, HCT-15, read-out: EC50 (concentration inhibiting cell growth in vitro by 50%)

| Compound | EC50 [1, 8] [nM] | EC50 [2, 9] [nM] | EC50 [3, 10] [nM] | EC50 [4, 11] [nM] | EC50 [5, 12] [nM] | EC50 [6, 9] [nM] | EC50 [7] [nM] | EC50 ([1]; Homo sapiens, SK-MEL-2, read-out: EC50 (concentration inhibiting cell growth in vitro by 50%)) [nM] | EC50 [2, 13] [nM] | EC50 ([3]; Homo sapiens, A549, read-out: EC50 (concentration inhibiting cell growth in vitro by 50%)) [nM] | EC50 ([4]; Homo sapiens, SK-OV-3, read-out: EC50 (concentration inhibiting cell growth in vitro by 50%)) [nM] | EC50 ([5]; Homo sapiens, MES-SA/Dx5, read-out: EC50 (concentration inhibiting cell growth in vitro by 50%)) [nM] | EC50 [6, 13] [nM] | EC50 ([7]; Homo sapiens) [nM] |
| --- | --- | --- | --- | --- | --- | --- | --- | --- | --- | --- | --- | --- | --- | --- |
| CC[C@H](C)[C@H]1OC(=O)[C@H](C(C)C)N(C)C(=O)[C@@H](C(C)C)OC(=O)[C@H](C(C)C)N(C)C(=O)[C@@H](C(C)C)OC(=O)[C@H](C(C)C)N(C)C1=O [EN H, enniatin H] | 1770 ± 30 | 17700 ± 490 | 1840 ± 110 | 1710 ± 30 | 14900 ± 590 | 16700 ± 960 | 12900 ± 230 |  |  |  |  |  |  |  |
| beauvericin | 1470 ± 90 | 1660 ± 80 | 1430 ± 160 | 1390 ± 90 | 1340 ± 30 | 1530 ± 90 | 1290 ± 20 |  |  |  |  |  |  |  |
| CC[C@H](C)[C@H]1OC(=O)[C@H](C(C)C)N(C)C(=O)[C@@H](C(C)C)OC(=O)[C@H](C(C)C)N(C)C(=O)[C@@H]([C@@H](C)CC)OC(=O)[C@H](C(C)C)N(C)C1=O [EN I, enniatin I] | 530 ± 60 | 5880 ± 210 | 500 ± 40 | 490 ± 30 | 4900 ± 270 | 5560 ± 220 | 3940 ± 30 |  |  |  |  |  |  |  |
| COc1cccc2c1C(=O)c1c(O)c3c(c(O)c1C2=O)C[C@@](O)(C(=O)CO)C[C@@H]3O[C@H]1C[C@H](N)[C@H](O)[C@H](C)O1 [Doxorubicin, doxorubicin] |  |  |  |  |  |  |  | 40 ± 10 | 4480 ± 2150 | 30 ± 10 | 60 ± 10 | 1030 ± 310 | 10 ± 1 | 10 ± 0.1 |
| CCC(C)C[C@H]1OC(=O)[C@H](C(C)C)N(C)C(=O)[C@@H](CC(C)C)OC(=O)[C@H](C(C)C)N(C)C(=O)[C@@H](C(C)C)OC(=O)[C@H](C(C)C)N(C)C1=O (some centres unmarked) [EN MK1688, Enniatin MK1688] | 630 ± 10 | 16400 ± 840 | 450 ± 40 | 460 ± 30 | 13600 ± 790 | 14000 ± 540 | 13600 ± 1050 |  |  |  |  |  |  |  |
